Tests used:
[1] = CC50 assay (CellTiter-Glo) in Huh-7 HCV replicon cells; format: cell-based, human; conditions: human, 50% cytostatic concentration
Procedure: (§1) The anti-HCV activity of the pyrido[3,2-d]pyrimidine derivatives of this invention was tested in a human hepatoma Huh-7 cell line harbouring a HCV replicon. The assay comprised the following steps:
(§2) Step 1: Compound Preparation and Serial Dilution
(§3) • 1. for water soluble pyrido[3,2-d]pyrimidine derivatives, a volume of 500 μL of solution in cell media (DMEM, 10% FBS, P/S, L-Glutamine) was prepared with a concentration being twice the concentration of the starting final serial dilution concentration. A volume of 150 μL of the solution was added to the pre-specified wells in column 1 of a 96-well cell culture plate (PerkinElmer, white plate, cat. #6005181, for EC50 assay; black plate, cat. #6005182 for CC50 assay). The rest of the plate, columns 2-12, was filled with 100 μL of cell media. The plate was then placed on a Precision 2000 Workstation to start the serial dilution. Compounds were diluted three times each step from column 1 to column 10. Column 11 was used as a blank control (no compound added). • 2. for pyrido[3,2-d]pyrimidine derivatives requiring DMSO to dissolve, serial dilution is performed in 50% DMSO in a 384-well plate. A solution containing a compound at 100-fold concentration of the starting final serial dilution concentration was prepared in 50% DMSO and added to the pre-specified wells in column 1 of a polypropylene 384-well plate. The plate was then placed on a Precision 2000 Workstation to start the serial dilution. After the serial dilution, a volume of 2 μL of the solution was transferred from the 384-well plate to a 96-well cell culture plate containing 100 μL of cell media on a Biomek FX Workstation. The DMSO concentration in the final assay condition was 0.5% after cells are added to the plate and the total volume in each well is brought to 200 μL. Step 2: to each well of the serial dilution plate prepared above, 100 μL of cell media containing 6000 suspended Huh-7 HCV replicon cells was added with a Multidrop workstation. The plates were incubated for 3 days at 37° C. with 5% CO2. Step 3: Detection: • a) for the EC50 assay, the media in a 96-well cell culture plate was aspirated with a Biotek EL405 plate-washer. A volume of 200 μL of a solution containing a 1:1 mixture of cell-lysis buffer (Promega, Luciferase Cell Culture Lysis 5X Reagent, cat. #E1531) and luciferase substrate solution (Promega, Luciferase Assay, cat. # E4550) was added to each well of the plate with Multidrop. The plate was incubated for 30 minutes at room temperature before the luminescence signal was measured with a TopCount plate-reader. • b) for the CC50 assay, a volume of 100 μL of pre-mixed CellTiter-Glo (Promega, cat. # G7572) solution is added directly to the cell culture in each well of the plate and the luminescence signal is measured with a TopCount plate-reader after 10 minutes of incubation at room temperature.
(§4) Results in table 13 are expressed by the following data: • the 50% effective concentration (EC50), i.e. the concentration that protects 50% of the cell monolayer from virus-induced cythopathic effect, and • the 50% cytostatic concentration (CC50), i.e. the concentration that results in 50% inhibition of cell growth.

HCV replicon = test: Anti-HCV replicon assay (EC50, luciferase readout); format: cell-based; conditions: Hepatitis C virus, 72 h; human hepatoma Huh-7 cell line harbouring a HCV replicon; 3 days; luciferase; read-out: EC50
Procedure: as §1, §2, §3, §4

| SMILES | CC50 at 3 days [1] | EC50 (HCV replicon) |
| --- | --- | --- |
| CCOc1nc(N)nc2ccc(-c3ccc(C(=O)NCC(C)C)cc3)nc12 [Example 56, 4-(2-Amino-4-ethoxy-pyrido[3,2-d]pyrimidin-6-yl)-N-isobutyl-benzamide] | > 20 µM | 300 to 1000 nM |
| CCCCNC(=O)c1ccc(-c2ccc3nc(N)nc(OCC)c3n2)cc1 [Example 57, 4-(2-Amino-4-ethoxy-pyrido[3,2-d]pyrimidin-6-yl)-N-butyl-benzamide] | > 20 µM | 300 to 1000 nM |
| CCOc1nc(N)nc2ccc(-c3ccc(C(=O)NC(C)(C)C)cc3)nc12 [Example 58, 4-(2-Amino-4-ethoxy-pyrido[3,2-d]pyrimidin-6-yl)-N-tert-butyl-benzamide] | > 20 µM | > 1000 nM |
| CCOc1nc(N)nc2ccc(-c3ccc(C(=O)NC4CCCC4)cc3)nc12 [Example 59, 4-(2-Amino-4-ethoxy-pyrido[3,2-d]pyrimidin-6-yl)-N-cyclopentyl-benzamide] | > 20 µM | 300 to 1000 nM |
| CCOc1nc(N)nc2ccc(-c3ccc(C(=O)NOC)cc3)nc12 [Example 60, 4-(2-Amino-4-ethoxy-pyrido[3,2-d]pyrimidin-6-yl)-N-methoxy-benzamide] | > 20 µM | > 1000 nM |
| CCOc1nc(N)nc2ccc(-c3ccc(C(=O)NC(C)C)cc3)nc12 [Example 61, 4-(2-Amino-4-ethoxy-pyrido[3,2-d]pyrimidin-6-yl)-N-isopropyl-benzamide] | > 20 µM | 300 to 1000 nM |
| CCOc1nc(N)nc2ccc(-c3ccc(C(=O)NC4CC4)c(Cl)c3)nc12 [Example 62, 4-(2-Amino-4-ethoxy-pyrido[3,2-d]pyrimidin-6-yl)-2-chloro-N-cyclopropyl-benzamide] | > 20 µM | > 1000 nM |
| CCOc1nc(N)nc2ccc(-c3ccc(C(=O)NCCN(C)C)cc3)nc12 [Example 63, 4-(2-Amino-4-ethoxy-pyrido[3,2-d]pyrimidin-6-yl)-N-(2-dimethylamino-ethyl)-benzamide] | 10 to 20 µM | < 300 nM |
| CC(C)CNC(=O)c1ccc(-c2ccc3nc(N)nc(OC(C)C)c3n2)cc1 [Example 64, 4-(2-Amino-4-isopropoxy-pyrido[3,2-d]pyrimidin-6-yl)-N-isobutyl-benzamide] | > 20 µM | 300 to 1000 nM |
| CC(C)Oc1nc(N)nc2ccc(-c3ccc(C(=O)NC4CCCCC4)cc3)nc12 [Example 65, 4-(2-Amino-4-isopropoxy-pyrido[3,2-d]pyrimidin-6-yl)-N-cyclohexyl-benzamide] | > 20 µM | > 1000 nM |
| CCCCNC(=O)c1ccc(-c2ccc3nc(N)nc(OC(C)C)c3n2)cc1 [Example 66, 4-(2-Amino-4-isopropoxy-pyrido[3,2-d]pyrimidin-6-yl)-N-n-butyl-benzamide] | > 20 µM | 300 to 1000 nM |
| CC(C)Oc1nc(N)nc2ccc(-c3ccc(C(=O)NC(C)(C)C)cc3)nc12 [Example 67, 4-(2-Amino-4-isopropoxy-pyrido[3,2-d]pyrimidin-6-yl)-N-tert-butyl-benzamide] | > 20 µM | 300 to 1000 nM |
| CC(C)Oc1nc(N)nc2ccc(-c3ccc(C(=O)NC4CCCC4)cc3)nc12 [Example 68, 4-(2-Amino-4-isopropoxy-pyrido[3,2-d]pyrimidin-6-yl)-N-cyclopentyl-benzamide] | > 20 µM | 300 to 1000 nM |
| CC(C)NC(=O)c1ccc(-c2ccc3nc(N)nc(OC(C)C)c3n2)cc1 [Example 69, 4-(2-Amino-4-isopropoxy-pyrido[3,2-d]pyrimidin-6-yl)-N-isopropyl-benzamide] | > 20 µM | < 300 nM |
| CONC(=O)c1ccc(-c2ccc3nc(N)nc(OC(C)C)c3n2)cc1 [Example 70, 4-[2-Amino-4-isopropoxy-pyrido[3,2-d]pyrimidin-6-yl]-N-methoxy-benzamide] | > 20 µM | < 300 nM |
| CNC(=O)c1ccc(-c2ccc3nc(N)nc(OC(C)C)c3n2)cc1Cl [Example 71, 4-(2-Amino-4-isopropoxy-pyrido[3,2-d]pyrimidin-6-yl)-2-chloro-N-methyl-benzamide] | > 20 µM | > 1000 nM |

From patent US8143394B2, “Pyrido(3,2-d)pyrimidines useful for treating viral infections” (Gilead Sciences, Inc., priority 2006, dated 2012)
